{"source": "the METLIN SMRT retention time set (Domingo-Almenara et al. 2019)", "experiment": "gradient 5% acetonitrile 3 min, to 50% in 2 min, to 85% in 15 min, held 3 min, 100 µL/min", "settings": "column: Zorbax Extend-C18 2.1 x 50 mm; eluents: water / acetonitrile, 0.1% formic acid", "summary_of_the_method": "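In both positive and negative ionization mode, a quadrupole time-of-flight mass spectrometer coupled to HPLC analyzed pure standards run in mixtures of ~100 molecules. The Zorbax Extend-C18 column (2.1 × 50 mm, 1.8 μm) was operated at 100 μL/min with water and acetonitrile, each containing 0.1% formic acid. The dead volume was 40 μL and the dwell volume 900 μL. Retention time came from adduct peaks that were computationally picked and individually inspected by hand.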", "data": [{"smiles": "O=C(CN1C(=O)NC2(CCCCC2)C1=O)Nc1ccccc1Cl", "values": [{"measurement": "RP-LC retention time", "value": 764, "unit": "s"}]}, {"smiles": "Cc1[nH]c(C(=O)N2CCC(CC(=O)NCc3cccc(F)c3)CC2)c(C)c1C(=O)OC(C)C", "values": [{"measurement": "RP-LC retention time", "value": 839, "unit": "s"}]}, {"smiles": "O=C(Cn1nc2c3cc(F)ccc3ncn2c1=O)Nc1ccc2c(c1)OCO2", "values": [{"measurement": "RP-LC retention time", "value": 668, "unit": "s"}]}, {"smiles": "O=C(C1CC1)N1CCc2sc(S(=O)(=O)NCc3ccccc3F)cc2C1", "values": [{"measurement": "RP-LC retention time", "value": 815, "unit": "s"}]}, {"smiles": "CSc1ccccc1CN1CCC(CNC(=O)C(=O)NCc2ccc(F)cc2)CC1", "values": [{"measurement": "RP-LC retention time", "value": 595, "unit": "s"}]}, {"smiles": "COCc1c(C(=O)N2CC(F)(F)C[C@H]2c2nc(C)no2)noc1C", "values": [{"measurement": "RP-LC retention time", "value": 778, "unit": "s"}]}, {"smiles": "COc1ccc(-c2ncc3c(n2)CCN(C(=O)c2ccccc2Br)C3)cc1", "values": [{"measurement": "RP-LC retention time", "value": 948, "unit": "s"}]}, {"smiles": "COC(=O)c1c(NCc2ccccc2C(F)(F)F)c2cccc(Cl)c2[nH]c1=O", "values": [{"measurement": "RP-LC retention time", "value": 879, "unit": "s"}]}, {"smiles": "COc1ccc(C(O)CN2CCN(c3ccccc3)CC2)cc1", "note": "(configuration not stated)", "values": [{"measurement": "RP-LC retention time", "value": 630, "unit": "s"}]}, {"smiles": "Cc1ccc(NC(=O)C2CCCN(c3ncnc4c3oc3ccccc34)C2)cc1C", "note": "(configuration not stated)", "values": [{"measurement": "RP-LC retention time", "value": 868, "unit": "s"}]}, {"smiles": "Cc1cccc(NC(=O)C2C(=O)N(C)C3(C)CC2c2ccccc2O3)c1", "note": "(configuration not stated)", "values": [{"measurement": "RP-LC retention time", "value": 995, "unit": "s"}]}, {"smiles": "COc1cccc(-c2nn3c(COc4ccc(Br)cc4)nnc3s2)c1OC", "values": [{"measurement": "RP-LC retention time", "value": 1130, "unit": "s"}]}, {"smiles": "CCOC(=O)c1cnc2c(-c3ccc(Cl)cc3)c(COC)nn2c1N", "values": [{"measurement": "RP-LC retention time", "value": 1150, "unit": "s"}]}, {"smiles": "O=C(N[C@H]1C[C@@H]2C[C@H]1CN2S(=O)(=O)c1ccccc1C(F)(F)F)c1ccccc1", "values": [{"measurement": "RP-LC retention time", "value": 921, "unit": "s"}]}, {"smiles": "O=C(CSc1ncc(CO)n1CC(=O)NC1CC1)Nc1ccc(F)cc1F", "values": [{"measurement": "RP-LC retention time", "value": 565, "unit": "s"}]}, {"smiles": "CCc1nc(OCC(=O)Nc2ccc(Cl)cc2Cl)c2ccccc2n1", "values": [{"measurement": "RP-LC retention time", "value": 937, "unit": "s"}]}, {"smiles": "Cc1noc(C)c1CNC(=O)c1ccc(OC(F)(F)F)cc1", "values": [{"measurement": "RP-LC retention time", "value": 825, "unit": "s"}]}, {"smiles": "CN(CCc1noc(C2CN(C(=O)c3ccsc3)C2)n1)C(=O)C1CC1", "values": [{"measurement": "RP-LC retention time", "value": 647, "unit": "s"}]}, {"smiles": "CC(C)Cn1cc(CCNS(=O)(=O)c2ccc(F)c(Cl)c2)c2cccnc21", "values": [{"measurement": "RP-LC retention time", "value": 1000, "unit": "s"}]}, {"smiles": "CCC(=O)N1CCc2cc(CNS(=O)(=O)c3ccc(F)cc3)ccc21", "values": [{"measurement": "RP-LC retention time", "value": 838, "unit": "s"}]}, {"smiles": "Cc1cc(Br)ccc1NC(=O)C1CCCN(c2ncnc3c2nc2n3CCCCC2)C1", "note": "(configuration not stated)", "values": [{"measurement": "RP-LC retention time", "value": 895, "unit": "s"}]}, {"smiles": "O=c1c2sccc2n(Cc2nc(-c3ccc(F)c(Cl)c3)no2)c(=O)n1-c1cccc(F)c1", "values": [{"measurement": "RP-LC retention time", "value": 1070, "unit": "s"}]}, {"smiles": "COc1ccc(N2CCN(C(=O)c3cc4c(s3)CN(C3CCCC3)C4)CC2)cc1", "values": [{"measurement": "RP-LC retention time", "value": 623, "unit": "s"}]}, {"smiles": "COc1ccc(-c2nc(C)cc(C)c2CNS(=O)(=O)c2ccc(OC)cc2)cc1", "values": [{"measurement": "RP-LC retention time", "value": 643, "unit": "s"}]}, {"smiles": "COc1cc(-c2cccc(Cl)c2)nc2ccc(NC(=O)Cc3cccs3)cc12", "values": [{"measurement": "RP-LC retention time", "value": 843, "unit": "s"}]}, {"smiles": "COc1ccc(NC(=O)Cn2nc(C(=O)N3CCOCC3)c3ccccc32)cc1", "values": [{"measurement": "RP-LC retention time", "value": 712, "unit": "s"}]}, {"smiles": "O=C(C1CCN(Cc2cc3ccccc3n2Cc2ccccc2)CC1)N1CCN(C2CCCCC2)CC1", "values": [{"measurement": "RP-LC retention time", "value": 634, "unit": "s"}]}, {"smiles": "Cc1ccc(C)c(NS(=O)(=O)c2ccc3c(c2)C(=O)N(C)c2ncccc2O3)c1", "values": [{"measurement": "RP-LC retention time", "value": 970, "unit": "s"}]}, {"smiles": "CNC(=O)c1[nH]c2ccc(C)cc2c1N1CCCC1=O", "values": [{"measurement": "RP-LC retention time", "value": 675, "unit": "s"}]}, {"smiles": "CN(C)C(=O)c1cc2cccc3c2n1CCS3", "values": [{"measurement": "RP-LC retention time", "value": 816, "unit": "s"}]}, {"smiles": "Cc1cc(C)cc(NC(=O)Cn2cnc3nc(N4CCC(C(=O)NC5CC5)CC4)sc3c2=O)c1", "values": [{"measurement": "RP-LC retention time", "value": 713, "unit": "s"}]}, {"smiles": "O=C(c1c[nH]c2ccccc12)N1CCCC1c1nc(-c2ccccc2)n[nH]1", "note": "(configuration not stated)", "values": [{"measurement": "RP-LC retention time", "value": 649, "unit": "s"}]}, {"smiles": "CCCNC(=O)CN1CCN(Cc2ccccc2)C1=O", "values": [{"measurement": "RP-LC retention time", "value": 675, "unit": "s"}]}, {"smiles": "CCc1noc(NC(C)=O)c1-c1ccc(C)c(S(=O)(=O)Nc2cc(OC)c(OC)c(OC)c2)c1", "values": [{"measurement": "RP-LC retention time", "value": 761, "unit": "s"}]}, {"smiles": "Cc1ccccc1OCc1nc(CCN(C)C(=O)c2ccc(Br)o2)no1", "values": [{"measurement": "RP-LC retention time", "value": 951, "unit": "s"}]}, {"smiles": "C=CCn1c(C)c(CC(=O)NCCCC)c(=O)n2nc(-c3ccccc3)nc12", "values": [{"measurement": "RP-LC retention time", "value": 818, "unit": "s"}]}, {"smiles": "COc1ccc(CC(=O)Nc2ccc3c(c2)Sc2ncccc2C(=O)N3C)c(Cl)c1", "values": [{"measurement": "RP-LC retention time", "value": 804, "unit": "s"}]}, {"smiles": "COC(=O)c1ccc(Nc2nc(C)nc3c2CCC3)cc1", "values": [{"measurement": "RP-LC retention time", "value": 615, "unit": "s"}]}, {"smiles": "O=C(C1CCC1)N1CCCC1c1nc(C2CCOCC2)no1", "note": "(configuration not stated)", "values": [{"measurement": "RP-LC retention time", "value": 624, "unit": "s"}]}, {"smiles": "Nc1nc(-c2ccc(O)cc2)cs1", "values": [{"measurement": "RP-LC retention time", "value": 547, "unit": "s"}]}, {"smiles": "Cc1nc2cc(-c3noc(-c4cncc(Br)c4)n3)ccc2o1", "values": [{"measurement": "RP-LC retention time", "value": 1060, "unit": "s"}]}, {"smiles": "Cc1ccc(C(=O)OCCN2C(=O)c3ccccc3C2=O)cc1", "values": [{"measurement": "RP-LC retention time", "value": 775, "unit": "s"}]}, {"smiles": "CCCOc1ccc(CNC(=O)C2CCc3nc(N4CCCCC4)ncc3C2)cc1", "note": "(configuration not stated)", "values": [{"measurement": "RP-LC retention time", "value": 850, "unit": "s"}]}, {"smiles": "CC(Cc1cccs1)NC(=O)NCc1cccc2ccccc12", "note": "(configuration not stated)", "values": [{"measurement": "RP-LC retention time", "value": 881, "unit": "s"}]}, {"smiles": "CN(C)CCNc1oc(-c2ccc(COc3ccccc3)o2)nc1C#N", "values": [{"measurement": "RP-LC retention time", "value": 684, "unit": "s"}]}, {"smiles": "COC(=O)c1ccc2c(C(C)=O)c[nH]c2c1", "values": [{"measurement": "RP-LC retention time", "value": 642, "unit": "s"}]}, {"smiles": "Cc1ccc(CNC(=O)c2nnc(-c3ccc(S(=O)(=O)N4CCC(C)CC4)cc3)o2)cc1", "values": [{"measurement": "RP-LC retention time", "value": 1100, "unit": "s"}]}, {"smiles": "CN1CCN(C(CNC(=O)c2ccc3c(c2)OCO3)c2ccc3c(c2)OCO3)CC1", "note": "(configuration not stated)", "values": [{"measurement": "RP-LC retention time", "value": 614, "unit": "s"}]}, {"smiles": "CC(=O)Nc1onc(C)c1-c1ccc(C)c(S(=O)(=O)N(C)Cc2ccccc2)c1", "values": [{"measurement": "RP-LC retention time", "value": 905, "unit": "s"}]}, {"smiles": "Cc1ccc2[nH]c(=O)c(CCC(=O)NCc3cccnc3)cc2c1", "values": [{"measurement": "RP-LC retention time", "value": 584, "unit": "s"}]}, {"smiles": "Cc1cc2c(cc1S(=O)(=O)N1CCCC1C(=O)NCc1ccccc1Cl)OC(C)C(=O)N2", "note": "(configuration not stated)", "values": [{"measurement": "RP-LC retention time", "value": 812, "unit": "s"}]}, {"smiles": "Cc1ccc(CN2CCN(C3CCN(C(=O)Nc4ccc5c(c4)OCO5)CC3)C(=O)C2=O)cc1", "values": [{"measurement": "RP-LC retention time", "value": 696, "unit": "s"}]}, {"smiles": "CCOC(=O)c1ccccc1NC(=O)CSc1nnc2c3cc(-c4ccc(C)cc4)nn3ccn12", "values": [{"measurement": "RP-LC retention time", "value": 1080, "unit": "s"}]}, {"smiles": "CCc1cc(C2CCCN2C(=O)Nc2cccc(Cl)c2)on1", "note": "(configuration not stated)", "values": [{"measurement": "RP-LC retention time", "value": 924, "unit": "s"}]}, {"smiles": "CC1=C(c2ccc(F)cc2)S(=O)(=O)N=C1N1CCC(NC(=O)C2CCOC2)CC1", "note": "(configuration not stated)", "values": [{"measurement": "RP-LC retention time", "value": 664, "unit": "s"}]}, {"smiles": "Cc1cc2c(N3CCCC(C(=O)NCc4ccccc4C(F)(F)F)C3)nccc2s1", "note": "(configuration not stated)", "values": [{"measurement": "RP-LC retention time", "value": 738, "unit": "s"}]}, {"smiles": "Cc1ccc(C)c(CN2CCn3c(nn(CC4CC4)c3=O)C2)c1", "values": [{"measurement": "RP-LC retention time", "value": 879, "unit": "s"}]}, {"smiles": "COc1ccc(-n2nnc(-c3nc(-c4ccccc4OC)cs3)c2N)cc1", "values": [{"measurement": "RP-LC retention time", "value": 1090, "unit": "s"}]}, {"smiles": "CC(C)(C)c1ccc(CN2CCC(OC3CCN(C4CCCC4)C3=O)CC2)cc1", "note": "(configuration not stated)", "values": [{"measurement": "RP-LC retention time", "value": 758, "unit": "s"}]}, {"smiles": "CC(C)n1cnc(S(=O)(=O)N2CCC(C(=O)Nc3ccc4c(c3)OCO4)CC2)c1", "values": [{"measurement": "RP-LC retention time", "value": 722, "unit": "s"}]}, {"smiles": "Cn1c(N)c(S(=O)(=O)Nc2ccc(Br)cc2)c(=O)n(C)c1=O", "values": [{"measurement": "RP-LC retention time", "value": 672, "unit": "s"}]}, {"smiles": "Cc1cc(-c2nnc(NC(=O)Cn3cnc4c3c(=O)n(C)c(=O)n4C)o2)n(C)n1", "values": [{"measurement": "RP-LC retention time", "value": 580, "unit": "s"}]}, {"smiles": "COc1cccc(OC)c1CN1C[C@@H](CO)[C@H](c2ccncc2)C1", "values": [{"measurement": "RP-LC retention time", "value": 500, "unit": "s"}]}, {"smiles": "CCn1nccc1-c1cccc(-c2noc(C(C)NC(=O)c3ccccc3)n2)c1", "note": "(configuration not stated)", "values": [{"measurement": "RP-LC retention time", "value": 929, "unit": "s"}]}, {"smiles": "CC(=O)N1c2ccc(S(=O)(=O)N3CCCC3)cc2CC1C(=O)NCc1ccc(N(C)C)cc1", "note": "(configuration not stated)", "values": [{"measurement": "RP-LC retention time", "value": 620, "unit": "s"}]}, {"smiles": "CC(C)C(=O)NC(Cc1ccccc1)c1nnc(N2CCSCC2)o1", "note": "(configuration not stated)", "values": [{"measurement": "RP-LC retention time", "value": 738, "unit": "s"}]}, {"smiles": "Cc1cccc(C)c1NC(=O)CN1C(=O)NC2(CCCCC2)C1=O", "values": [{"measurement": "RP-LC retention time", "value": 745, "unit": "s"}]}]}
